Results: PMC3590144, “Determination of the Structure of the Catabolic N-Succinylornithine Transaminase (AstC) from Escherichia coli” (PLoS ONE, 2013)

Assays:
Format in all cases: binding
[1] = biological target: T1, AstC (Escherichia coli, UniProt P77581); assay: X-ray crystal structure, […] Å; details: covalent; internal aldimine with Lys252 at dimer interface; sodium malonate, Tris pH 8.0
T1 construct: full-length, native untagged, no plasmid; purified from E. coli BL21(DE3) by Ni-NTA and size exclusion as apo-protein, reconstituted with PLP; about 406 residues; dimer
T1 sequence (P77581 whole entry): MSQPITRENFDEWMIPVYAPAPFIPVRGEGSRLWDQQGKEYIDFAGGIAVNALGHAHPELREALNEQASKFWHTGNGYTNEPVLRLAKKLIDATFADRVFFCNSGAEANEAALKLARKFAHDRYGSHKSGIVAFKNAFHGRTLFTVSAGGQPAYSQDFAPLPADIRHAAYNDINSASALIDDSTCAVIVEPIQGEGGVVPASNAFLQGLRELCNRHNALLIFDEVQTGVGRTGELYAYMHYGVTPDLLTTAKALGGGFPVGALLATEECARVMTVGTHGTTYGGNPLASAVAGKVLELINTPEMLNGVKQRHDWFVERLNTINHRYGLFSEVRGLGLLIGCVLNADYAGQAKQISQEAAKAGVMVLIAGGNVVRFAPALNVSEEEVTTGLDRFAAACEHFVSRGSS

[2] = biological target: T1, AstC; assay: differential scanning fluorimetry, SYPRO dye; details: Tris buffered saline; apo-protein plus PLP (about 10-fold excess) versus apo-protein
[3] = biological target: T1, AstC; assay: X-ray crystal structure of co-crystals, […] Å; details: covalent to PLP cofactor (external aldimine); PLP present; salt bridge to Arg141; ammonium sulfate pH 7-9

Compound: Cc1ncc(COP(=O)(O)O)c(C=O)c1O [PLP, pyridoxal phosphate]
- X-ray crystal structure, 2.20 Å [1]: continuous density between Lys252 and the PLP, indicating that the expected aldimine had formed
- apparent Tm (holo-AstC; apo-AstC 43.5) [2]: 46 °C

Compound: NCCC[C@H](NC(=O)CCC(=O)O)C(=O)O [SO, succinylornithine]
- X-ray crystal structure of co-crystals, 2.45 Å [3]: continuous electron density between PLP and SO was observed (see Figure 5C)
